Read-outs that look alike come from different tables or passages of the source. Some results are limits rather than exact numbers.

Drawing on patent publication US20120059162A1, “FUSED IMIDAZOLE DERIVATIVE HAVING TTK INHIBITORY ACTION” (Oncotherapy Science, Inc., priority 2009, published 2012), this text covers IC50 for 19 molecules.

One test addresses T1, TTK (Homo sapiens, UniProt P33981).
T1 sequence (P33981 1-857): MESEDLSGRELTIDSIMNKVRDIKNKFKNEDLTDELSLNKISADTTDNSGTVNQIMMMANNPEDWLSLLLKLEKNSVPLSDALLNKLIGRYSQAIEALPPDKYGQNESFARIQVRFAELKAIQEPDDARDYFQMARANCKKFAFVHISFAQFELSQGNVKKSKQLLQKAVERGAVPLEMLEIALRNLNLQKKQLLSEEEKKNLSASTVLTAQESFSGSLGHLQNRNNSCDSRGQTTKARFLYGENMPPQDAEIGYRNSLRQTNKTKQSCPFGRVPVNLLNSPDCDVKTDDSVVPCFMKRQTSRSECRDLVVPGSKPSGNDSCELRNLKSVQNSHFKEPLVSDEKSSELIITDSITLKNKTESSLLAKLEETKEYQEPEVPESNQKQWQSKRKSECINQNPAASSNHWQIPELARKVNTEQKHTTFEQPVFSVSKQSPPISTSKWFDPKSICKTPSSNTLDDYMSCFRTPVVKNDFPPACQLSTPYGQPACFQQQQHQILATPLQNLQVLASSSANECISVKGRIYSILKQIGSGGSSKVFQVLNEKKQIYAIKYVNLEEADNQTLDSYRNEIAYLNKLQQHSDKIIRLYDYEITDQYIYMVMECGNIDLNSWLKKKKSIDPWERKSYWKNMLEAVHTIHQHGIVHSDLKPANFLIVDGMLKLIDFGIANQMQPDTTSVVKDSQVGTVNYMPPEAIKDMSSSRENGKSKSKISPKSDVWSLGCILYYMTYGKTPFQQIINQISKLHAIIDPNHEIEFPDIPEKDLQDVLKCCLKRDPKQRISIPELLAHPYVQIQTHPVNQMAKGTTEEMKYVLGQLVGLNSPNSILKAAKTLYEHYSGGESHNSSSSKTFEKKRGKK
Briefly: TTK assay: screening of TTK kinase activity suppressing action using p38 MAPK peptide. It is filed as biochemical. As to the method:
Screening of a compound having a TTK kinase activity suppressing action using p38 MAPK peptide
A test substance 1.0 μL (solvent: 10% (v/v) DMSO), TTK solution 5 μL (composition: 4 μg/ml TTK, 25 mM Tris-HCl, pH7.5, 5 mM β-glycerophosphate, 2 mM DTT, 0.1 mM Na3VO4, 5 mM MgCl2, 0.1% (w/v)BSA) and a substrate solution 5 μL (composition: 60 μM p38 MAPK peptide, 60 μM ATP, 25 mM Tris-HCl, pH7.5, 5 mM β-glycerophosphate, 2 mM DTT, 0.1 mM Na3VO4, 5 mM MgCl2, 0.1% (w/v)BSA) were mixed in the wells of a 384-well microtiter plate (manufactured by Corning Incorporated) made of polypropylene and loaded in a constant temperature and humidity room.
From the resultant mixture, an aliquot of 1.7 μL was taken out and mixed with the reaction terminating solution (60 μl) in the wells of a 384-well microtiter plate (manufactured by Corning Incorporated) made of polypropylene. Thereafter, 40 μL of the mixture was transferred to a 384-well black NeutrAvidin plate (PIERCE), sealed and incubated under room temperature for 30 minutes. […] Similarly, the plate was washed with TTBS (100 μL) three times, 40 μl of a secondary antibody solution (Eu-N1 labeled Anti-mouse IgG (Perkin Elmer, #AD0124)) was added and incubated under room temperature for 30 minutes. After the plate was washed with TTBS (100 μL) five times, 40 μL of an enhance solution (Perkin Elmer) was added and incubated under room temperature for 5 minutes. […] Based on the fluorescence value in the absence of a test substance, the suppression activity of a test substance was measured.

For a further test, the system named is A549. Briefly: A549 assay: screening of cancer cell growth inhibiting compound. It is filed as cell-based. As to conditions: Homo sapiens. A digest of the protocol: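 A549 cells (1×10^4/ml) in D-MEM with 10% FBS were pre-incubated one day at 37 °C, then exposed to compound dilutions for three further days. Viable cell number read by WST-8 (1–4 hours), absorbance 450 nm (reference 620 nm); inhibition calculated relative to untreated wells.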

[1] abbreviates: p38 MAPK peptide substrate, read-out: TTK IC50.
Where [2] appears, read: 72 h, A549 cells, three days, WST-8, read-out: A549 IC50.
Setting [3] is: A549 cells, values given as IC50 intervals, read-out: A549 IC50.

As to `O=C(NC1CC1)c1ccc(-c2cnc3c(NCC4CCOCC4)cc(N4CCN(C(=O)C5CC5)CC4)nn23)cc1` [Example 2-47], the IC50 (commonly the concentration at which inhibition is half-maximal) at TTK (setting [1]) is 3.1 nM; in the test with A549 (setting [2]) it was 0.05 to 0.5 µM.
As to `O=C(NC1CC1)c1ccc(-c2cnc3c(NCC4CCOCC4)cc(OC4CCCCCC4)nn23)cc1` [Example 2-181], the IC50 on TTK (read-out: TTK IC50) is 10.2 nM; in the test on A549 (setting [3]), 0.05 to 0.5 µM.
`Cc1cc(C#N)ccc1-c1cc(NCC2CCOCC2)c2ncc(-c3ccc(C(=O)NC4CC4)cc3)n2n1` [Example 2-202]: the IC50 was 3.5 nM at TTK (read-out: TTK IC50) and 0.05 to 0.5 µM in the test on A549 (setting [3]).
For `CC(Nc1cc(NCC2CCOCC2)c2ncc(-c3ccc(C(=O)NC4CC4)cc3)n2n1)c1cccs1` (centres unmarked) [Example 2-84], the values for the IC50 at TTK (setting [1]) and in the test with A549 (setting [2]) were 7.5 nM and 0.05 to 0.5 µM, respectively.
The matching figures for `N#Cc1ccc(-c2cn3c(-c4ccc(C(=O)NC5CC5)cc4)cnc3c(NC[C@H]3CC[C@H](C(=O)O)CC3)n2)cc1` [Example 1-239]: 4.8 nM and 1 to 10 µM.
`CC(C)CNc1cc(NC2CCCCC2)nn2c(-c3ccc(C(=O)NC4CC4)cc3)cnc12` [Example 2-2, 4-(6-(Cyclohexylamino)-8-(isobutylamino)imidazo[1,2-b]pyridazin-3-yl)-N-cyclopropylbenzamide]: the IC50 was 11.8 nM against TTK and 0.05 to 0.5 µM in the test with A549 (A549, 72 h, read-out: A549 IC50 (μM)).
Turning to `O=C(NC1CC1)c1ccc(-c2cnc3c(NCC4CCOCC4)cc(NC4CCCOC4)nn23)cc1` (centres unmarked) [Example 2-83], the IC50 was 5.2 nM on TTK (setting [1]) and 0.05 to 0.5 µM in the test with A549 (setting [2]).
On the same counts, the results for `O=C(NC1CC1)c1ccc(-c2cnc3c(OCC4CCOCC4)cc(NC4CCCCC4)nn23)cc1` [Example 2-89, 4-(6-(Cyclohexylamino)-8-((tetrahydro-2H-pyran-4-yl)methoxy)imidazo[1,2-b]pyridazin-3-yl)-N-cyclopropylbenzamide] are 5 nM and 0.05 to 0.5 µM.
Turning to `N#Cc1ccc(-c2cc(NCC3CCOCC3)c3ncc(-c4ccc(C(=O)NC5CC5)cc4)n3n2)cn1` [Example 2-199], the half-inhibitory concentration (IC50) was 7.4 nM at TTK (read-out: TTK IC50) and 0.05 to 0.5 µM with A549 (setting [3]).
Consider `CC(Nc1cc(NCC2CCOCC2)c2ncc(-c3ccc(C(=O)NC4CC4)cc3)n2n1)C(F)(F)F` (centres unmarked) [Example 2-61], for which the IC50 on TTK (setting [1]) was 5.1 nM; in the test with A549 (setting [2]), ≤ 0.05 µM.
Regarding `O=C(NC1CC1)c1ccc(-c2cnc3c(NCC4CCOCC4)cc(OCC(F)(F)F)nn23)cc1` [Example 2-183], the IC50 at TTK (read-out: TTK IC50) is 5.7 nM; in the test with A549 (setting [3]), 0.05 to 0.5 µM.
On to `O=C(NC1CC1)c1ccc(-c2cnc3c(NCCSCCO)cc(NC4CCCCC4)nn23)cc1` [Example 2-136], for which the IC50 was 7.3 nM on TTK (setting [1]) and 0.05 to 0.5 µM in the test on A549 (setting [2]).
For the molecule `COCC(C)Nc1cc(NCC2CCOCC2)c2ncc(-c3ccc(C(=O)NC4CC4)cc3)n2n1` (centres unmarked) [Example 2-52], the IC50 was 17.8 nM on TTK (setting [1]) and 0.05 to 0.5 µM with A549 (setting [2]).
As for `CC(C)(C)CNc1cc(NCC2CCOCC2)c2ncc(-c3ccc(C(=O)NC4CC4)cc3)n2n1` [Example 2-57], the IC50 on TTK (setting [1]) is 4.5 nM; with A549 (setting [2]) it was 0.05 to 0.5 µM.
On the same counts, the results for `O=C(NC1CC1)c1ccc(-c2cnc3c(NCC4CCOCC4)cc(N4CCCCC4)nn23)cc1` [Example 2-12] are 8.4 nM and 0.05 to 0.5 µM.
`O=C(NC1CC1)c1ccc(-c2cnc3c(NCC4CCOCC4)cc(Oc4cccc(Cl)c4)nn23)cc1` [Example 2-114]: the values for the IC50 at TTK (setting [1]) and in the test with A549 (setting [2]) were 2.5 nM and 0.05 to 0.5 µM, respectively.
With `NC(=O)c1ccc(-c2cc(NCC3CCOCC3)c3ncc(-c4ccc(C(=O)NC5CC5)cc4)n3n2)cc1` [Example 2-4, 4-(6-(4-Carbamoylphenyl)-8-((tetrahydro-2H-pyran-4-yl)methylamino)imidazo[1,2-b]pyridazin-3-yl)-N-cyclopropylbenzamide], the values for the IC50 on TTK (setting [1]) and in the test with A549 (setting [2]) were 4.5 nM and 1 to 10 µM, respectively.
For `CC(CO)CNc1cc(NC2CCCCC2)nn2c(-c3ccc(C(=O)NC4CC4)cc3)cnc12` (centres unmarked) [Example 2-168], the IC50 is 3.3 nM on TTK (read-out: TTK IC50) and 0.05 to 0.5 µM in the test on A549 (setting [3]).
For the molecule `O=C(NC1CC1)c1ccc(-c2cnc3c(NCC4CCOCC4)cc(NC4CCCCC4O)nn23)cc1` (centres unmarked) [Example 2-70], the IC50 was 4.5 nM at TTK (setting [1]) and 0.05 to 0.5 µM with A549 (setting [2]).
